The source of these data is US12479800B2, “Phenylpropionamide compound and use thereof” (MEDSHINE DISCOVERY INC., priority 2020, dated 2025).

Broadly, the EC50 is the concentration at which the effect is half-maximal.

Where a SMILES comes first, the peptide text is derived from it. [ ]: non-standard residue; d: D form. The star is where a group is joined. Gly(N-(2R-Ph-propyl)) = C[C@@H](CNCC(=O)O)c1ccccc1; Piperidin1yl(4-NH2,4-COOH) = NC1(C(=O)O)CCN(*)CC1; dGly(cPent) = N[C@@H](C(=O)O)C1CCCC1; dAla(cPr) = N[C@H](CC1CC1)C(=O)O; X1 = CC(=O)N1CC2(CCN(*)CC2)C1

Data set [1] concerns Rat hepatocyte. The experiment in a line: Metabolic stability (HMS) study in rat hepatocytes. The data set is classed as in vitro ADME. The conditions noted are these: 0.5×10^6 cells/mL. Here is the method:
(§1) To test the metabolic stability of the test compound in human and rat hepatocytes.
(§2) 2.1 Test Compound (10 mM), Reference Substance: 7-Ethoxycoumarin, 30 mM, 7-Hydroxycoumarin, Reference Substance, 30 mM
(§3) Culture medium for thawing: Williams' E medium containing 5% fetal bovine serum and 30% Percoll solution and other auxiliary materials.
(§4) Culture medium for incubation: Williams' E medium (without phenol red), wherein containing 2 mM L-glutamine and 25 mM of hydroxyethyl piperazine ethanesulfonic acid.
(§5) Termination solution: acetonitrile containing 200 ng/mL of tolbutamide and labetalol as internal standard.
(§6) Dilution solution: ultrapure water. […]
(§7) The elimination rate constant k of the test compound and the control compound in hepatocyte was calculated by plotting the logarithm of the time to the residual rate, and the half-life (T1/2) and the intrinsic clearance rate in vitro (CLint) were obtained by the elimination rate constant k with the following formula: T1/2=0.693/k CLint(hep)=k/number of cells per mL(million cells/mL) CLint(liver)=CLint(hep)×ratio of liver weight to body weight×number of hepatocytes per gram of liver […]

Data set [2] can be described thus: Plasma protein binding rate (PPB) test, human plasma. The data set is classed as in vitro ADME. To be noted: 2 μM, equilibrium dialysis 4 hours 37° C. Here is the method:
(§8) To test the protein binding rate of the test compound in human and SD rat plasma.
(§9) The frozen plasma was thawed in flowing cold tap water, and then the plasma was centrifuged at 3220×g for 5 minutes to remove the suspension and precipitate. The pH of plasma was determined, and only the plasma with a pH between 7.0 to 8.0 could be used for experiments.
(§10) The experiment was used a 96-well balanced dialysis plate (HTDialysis device) to determine the plasma protein binding rate of the test compound and control compound. Before the experiment was started, the dialysis membrane was pretreated according to the description, and then the dialysis device was assembled as required. The blank plasma of human and SD rats (plasma purchased from BioreclamationIVT) was taken, and the test compound working solution or the warfarin working solution was added to make the final concentration of the test compound and warfarin in the plasma samples both 2 μM. The sample was mixed well. […] The unbound rate (Unbound) %, bound rate (Bound) % and recovery rate (Recovery) % of the compound were calculated by the following formula: % Unbound=100*FC/TC, % Bound=100−% Unbound, % Recovery=100*(FC+TC)/T0. […]
(Equilibrium dialysis compares concentrations on both sides of a semipermeable membrane.)

Data set [3] is described as follows: Plasma protein binding rate (PPB) test, SD rat plasma. The format is in vitro ADME. The conditions noted are these: 2 μM, equilibrium dialysis 4 hours 37° C. Here is the method: as §8, §9, §10
Data set [4] concerns Human hepatocyte. The experiment in a line: Metabolic stability (HMS) study in human hepatocytes. The data set is classed as in vitro ADME. To be noted: 0.5×10^6 cells/mL. The method, then:
as §1, §2, §3, §4, §5, §6, §7

Data set [5] in a line: In vivo pharmacokinetic study in SD rats. Also noted: species or system Sprague Dawley rats. The conditions noted are these: intravenous 3 mg/kg. The method, then: To test the in vivo pharmacokinetics of test compound in SD rats
Sprague Dawley rats (male, 6 to 10 weeks old, purchased from Beijing Vital River Laboratory Animal Co., LTD)
Compound 1 was mixed with normal saline to prepare a clear solution of 1 mg/mL for injection group administration, filtered by microporous membranes and ready for use. The test compound was administered intravenously at 3 mg/kg, and the solvent for intravenous administration was normal saline. Plasma samples were collected at 0, 0.083, 0.25, 0.5, 1.0, 2.0, 4.0, 8.0 and 24 hours after administration. The plasma concentration was determined by LC-MS/MS method, and the relevant pharmacokinetic parameters were calculated by non-compartmental model linear logarithmic trapezoidal method using WinNonlin™ Version 6.3 (Pharsight, Mountain View, CA) pharmacokinetic software.

Data set [6] deals with Kappa receptor (Homo sapiens (Human), UniProt P41145). The experiment in a line: cAMP test of Kappa receptor. To be noted: KOR cAMP cells; read-out: EC50 value of the compound to Kappa receptor. The format is cell-based. The method, then: Experimental Embodiment 1: cAMP Test of Kappa Receptor
Experimental buffer: 1*HBSS (+/+) (SIGMA #H1387)+20 mM HEPES (LONZA #17-737E)
Stimulation buffer (STB): 200 μM IBMX (SIGMA #I7018) and 3 μM NKH477 (SIGMA #N3290) experimental buffer
Experimental Methods and Steps
The compound powder was dissolved with DMSO (Amresco #0231), and the concentration of the compound solution was 10 mM. 1 μL of the test compound was taken, and 49 μL of DMSO was added thereto, and the mixture was diluted to 200 μM of solution.
A LDV 384-well plate was taken, and the compound solution diluted in the previous step was respectively added to wells A1 to H1; a pre-prepared 200 μM of U-50488 (Tocris #0495/25) was taken and added to well P1; 10.8 μL of DMSO was added to each well of A2 to A11, […], and P2 to P11, respectively, and the mixture was centrifuged at 1000 rpm for 30 seconds.
Continuous gradient dilutions of compounds were performed with bravo, and the first column of LDV plate prepared in the previous step was taken as the initial concentration column, and 5 μL was sucked into the next column each time and blown and mixed evenly.
After the dilution was completed, 10 μL 200 μM of U-50488 was added to well A24 as HPE (100% inhibition rate activity), and 10 μL of DMSO was added to well P24 as ZPE (0% inhibition rate activity), and the mixture was centrifuged at 1000 rpm for 30 seconds.
According to the experimental layout, the compound solution diluted in the previous step was transferred to the experimental plate Corning 3824 with Echo 550, 50 nL per well.
A set of frozen KOR cAMP cells was taken from the −80° C. refrigerator and thawed in a 37° C.-water bath.
After thawing, the cells in the tube were aspirated into a 15 mL centrifuge tube, and 4 mL of experimental buffer was added thereto. […]
Cell density was counted and adjusted on a cell counter to 1.5*10^6 cells/mL. […]
Experimental plates were read with Envision.

As to `C[C@@H](CNCC(=O)N[C@H](Cc1ccccc1)C(=O)N[C@H](CC1CC1)C(=O)N[C@H](CCCCN)C(=O)N1CCC(N)(C(=O)O)CC1)c1ccccc1` [Compound 1] (H-[Gly(N-(2R-Ph-propyl))][dF][dAla(cPr)][dK]-{Piperidin1yl(4-NH2,4-COOH)}), the “Intrinsic clearance rate in liver” value in data set [1] was less than 1.79 L/h/kg. The “Unbound rate in plasma” value in data set [2] was 55.2%. Besides, the “Unbound rate in plasma” value in data set [3] came out at 44.7%. For the same molecule, in data set [4], the “Intrinsic clearance rate in liver” value was less than 1.07 L/h/kg. Further, in data set [5], the AUC0-last is 7.2 µM·h, the “Cl (total clearance rate)” value was found to be 0.594 L/h/kg, the “T1/2 (elimination half-life)” value is 1.33 h and the “Vdss (steady-state apparent volume of distribution)” value is 0.29 L/kg. For the same molecule, in data set [5] (read-out: C0 (initial concentration)), the C0 is 17.6 µM. Moreover, the EC50 in data set [6] was determined as 0.085 nM.
Take `C[C@@H](CNCC(=O)N[C@H](Cc1ccccc1)C(=O)N[C@@H](C(=O)N[C@H](CCCCN)C(=O)N1CCC(N)(C(=O)O)CC1)C1CCCC1)c1ccccc1` [Compound 2] (H-[Gly(N-(2R-Ph-propyl))][dF][dGly(cPent)][dK]-{Piperidin1yl(4-NH2,4-COOH)}): the EC50 in data set [6] amounted to 0.311 nM.
The same measure, in the same setting: with `CC(=O)N1CC2(CCN(C(=O)[C@@H](CCCCN)NC(=O)[C@@H](CC3CC3)NC(=O)[C@@H](Cc3ccccc3)NC(=O)CNC[C@H](C)c3ccccc3)CC2)C1` [Compound 4] (H-[Gly(N-(2R-Ph-propyl))][dF][dAla(cPr)][dK]-X1) the figure was 0.034 nM.
